We go through eight compounds from ChEMBL document CHEMBL1201862, “PubChem BioAssay data set” (2004).

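These data come from cells grown in 96-well plates and exposed to compound for 48 hours at five concentrations. Abbreviation: GI50, concentration required for 50% inhibition of growth.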 Calls of active or inactive are those of the source. Rule as the data show it: active = GI50 up to about 1.1 µM and inactive = higher. Some results are limits rather than exact numbers.

Test systems include A498; HCC 2998; HL-60; HOP-92; HT-29; MCF7; MDA-MB-435; MOLT-4; Malme-3M; OVCAR-3; OVCAR-4; OVCAR-5; RXF 393; SF-295; SK-MEL-5; SNB-75; UACC-257; UACC-62; NCI-H226; SR.
Common to all, as to experiment: inhibition of tumour cell growth, NCI panel, 48 h

On to `Oc1ccc(NCn2c(=S)sc3ccccc32)cc1`, for which the GI50 in the assay on A498 is > 100 µM (inactive); in the assay on HCC 2998, > 100 µM (inactive); with HL-60, 59.6 µM (inactive); in the assay with HOP-92, 33 µM (inactive); with HT-29, > 100 µM (inactive); with MCF7, 92.9 µM (inactive). Also, the GI50 in the assay on MDA-MB-435 is > 100 µM (inactive); in the assay with MOLT-4, 34.2 µM (inactive); in the assay on Malme-3M it was > 100 µM (inactive); in the assay on OVCAR-3 it was 97.9 µM (inactive); in the assay with OVCAR-4, 91 µM (inactive); with OVCAR-5, > 100 µM (inactive). Besides, the GI50 in the assay with RXF 393 was > 100 µM (inactive); in the assay with SF-295, > 100 µM (inactive); in the assay on SK-MEL-5, > 100 µM (inactive); in the assay with SNB-75, 54.8 µM (inactive); with UACC-257, > 100 µM (inactive); in the assay with UACC-62 it was 84.5 µM (inactive).
With `COc1cc(/C=C2\N=C(c3ccccc3)N(c3ccc(C(=O)c4ccccc4)cc3N3C(=O)/C(=C/c4cc(OC)c(OC)c(OC)c4)N=C3c3ccccc3)C2=O)cc(OC)c1OC`, the GI50 in the assay on A498 is 12 µM (inactive); with HCC 2998, 2.94 µM (inactive); in the assay on HL-60, 4.05 µM (inactive); in the assay on HOP-92, 47.2 µM (inactive); with HT-29, 29.1 µM (inactive); in the assay on MCF7, 12.6 µM (inactive). For the same compound, the GI50 with MDA-MB-435 was 2.85 µM (inactive); in the assay on MOLT-4, 4.97 µM (inactive); in the assay on Malme-3M, 13.8 µM (inactive); with OVCAR-3, 2.08 µM (inactive); in the assay on OVCAR-4, 21.8 µM (inactive); in the assay on OVCAR-5 it was 30.8 µM (inactive). Moreover, the GI50 is 11.2 µM (inactive) in the assay with RXF 393; 11.7 µM (inactive) in the assay with SF-295; 9.33 µM (inactive) in the assay on SK-MEL-5; 7.36 µM (inactive) with SNB-75; 15.2 µM (inactive) in the assay on UACC-257; 9.48 µM (inactive) in the assay with UACC-62.
Regarding `CCOC(=O)Cn1c(=O)c2cc(C)cc3c(Cl)nc4c(OC)c(OC)cc1c4c32`, the GI50 in the assay with HCC 2998 was > 100 µM (inactive); in the assay with HL-60 it was > 100 µM (inactive); with HOP-92 it was 41.5 µM (inactive); in the assay with HT-29 it was > 100 µM (inactive); with MCF7 it was 72.8 µM (inactive); in the assay on MDA-MB-435, > 100 µM (inactive). For the same compound, the GI50 in the assay with MOLT-4 was > 100 µM (inactive); in the assay with Malme-3M it was 44.2 µM (inactive); with NCI-H226, > 100 µM (inactive); in the assay on OVCAR-3 it was > 100 µM (inactive); in the assay on OVCAR-4, > 100 µM (inactive); in the assay on OVCAR-5, > 100 µM (inactive). For the same compound, the GI50 in the assay on RXF 393 was 51.1 µM (inactive); in the assay on SF-295, > 100 µM (inactive); in the assay with SK-MEL-5 it was > 100 µM (inactive); in the assay on SNB-75, 30.8 µM (inactive); in the assay on SR it was 50 µM (inactive); with UACC-257 it was > 100 µM (inactive). Besides, in the assay with UACC-62, the GI50 is > 100 µM (inactive).
As to `CC(C)(C)[Si](C)(C)OCC1OC(n2cnc3c(N)ncnc32)CC1OS(C)(=O)=O` (stereo not drawn), the GI50 with A498 was 43 µM (inactive); with HL-60, 64.9 µM (inactive); in the assay on HOP-92, 0.506 µM (active); with HT-29, > 100 µM (inactive); with MCF7, > 100 µM (inactive); in the assay with MDA-MB-435, > 100 µM (inactive). The GI50 with MOLT-4 is > 100 µM (inactive); in the assay with Malme-3M, > 100 µM (inactive); in the assay on NCI-H226 it was > 100 µM (inactive); with OVCAR-3, 27.4 µM (inactive); in the assay with OVCAR-4 it was > 100 µM (inactive); with OVCAR-5, 89.1 µM (inactive). Also, the GI50 is 25.6 µM (inactive) in the assay with RXF 393; > 100 µM (inactive) in the assay on SF-295; > 100 µM (inactive) with SR; > 100 µM (inactive) in the assay with UACC-257; 42.1 µM (inactive) with UACC-62.
Take `COC(=O)c1cc(NC2OCC(OC(C)=O)C(OC(C)=O)C2OC(C)=O)nc(SC)c1C(=O)OC` (stereo not drawn): the GI50 in the assay with HCC 2998 is > 100 µM (inactive); in the assay on HL-60 it was 74 µM (inactive); with HOP-92, > 100 µM (inactive); in the assay with HT-29 it was > 100 µM (inactive); in the assay with MCF7, > 100 µM (inactive); in the assay with MDA-MB-435, > 100 µM (inactive). In addition, the GI50 in the assay with MOLT-4, with OVCAR-3, in the assay with OVCAR-4, with OVCAR-5, in the assay on SF-295 and in the assay with SK-MEL-5 was > 100 µM (inactive) throughout. Further, the GI50 is 49.9 µM (inactive) in the assay with SNB-75, > 100 µM (inactive) in the assay on SR, > 100 µM (inactive) with UACC-257 and > 100 µM (inactive) with UACC-62.
For `CN1c2ccccc2C(=O)NC12CCN(CCCC(=O)c1ccc(F)cc1)CC2`, the GI50 in the assay on HCC 2998 is 19.7 µM (inactive); in the assay with HL-60, 30.7 µM (inactive); in the assay with HOP-92, 62.1 µM (inactive); in the assay with HT-29 it was 23.1 µM (inactive); with MCF7, 55 µM (inactive); in the assay on MDA-MB-435, 56.8 µM (inactive). In addition, the GI50 is 21.1 µM (inactive) in the assay on MOLT-4; 27.7 µM (inactive) with Malme-3M; > 100 µM (inactive) with NCI-H226; 48.9 µM (inactive) in the assay on OVCAR-3; 87.3 µM (inactive) in the assay with OVCAR-4; > 100 µM (inactive) with OVCAR-5. The GI50 with RXF 393 was 62.8 µM (inactive); in the assay with SF-295, 73.5 µM (inactive); in the assay on SK-MEL-5 it was 26.1 µM (inactive); in the assay with SNB-75, 71.6 µM (inactive); in the assay on SR, 32.4 µM (inactive); in the assay with UACC-257 it was 29 µM (inactive). In addition, in the assay with UACC-62, the GI50 was > 100 µM (inactive).
As to `CC1=C(C)[C@@]2(C)O[C@@]2(C)O[C@@]2(C)O[C@@]12C`, the GI50 in the assay on A498, in the assay on HOP-92, with HT-29, in the assay with MCF7, in the assay on MDA-MB-435 and with Malme-3M was > 100 µM (inactive) throughout. Further, the GI50 in the assay with NCI-H226, in the assay on OVCAR-4, with OVCAR-5, in the assay with SF-295, in the assay with SK-MEL-5 and in the assay on SNB-75 was > 100 µM (inactive) each time. Besides, the GI50 with SR, in the assay with UACC-257 and with UACC-62 was > 100 µM (inactive) throughout.
Turning to `Cc1cc(S(=O)(=O)Nc2nc(Nc3ccccc3)n[nH]2)c(SSc2cc(Cl)c(C)cc2S(=O)(=O)Nc2nc(Nc3ccccc3)n[nH]2)cc1Cl`, the GI50 in the assay with HL-60 was 25.1 µM (inactive); in the assay with HT-29, 98.2 µM (inactive); in the assay with MCF7, > 10 µM (inactive); with MDA-MB-435, > 100 µM (inactive); with MOLT-4 it was 35.7 µM (inactive); in the assay with Malme-3M, 46.8 µM (inactive). Moreover, the GI50 in the assay on OVCAR-3 was > 100 µM (inactive); with OVCAR-4, > 100 µM (inactive); with OVCAR-5, > 100 µM (inactive); in the assay on RXF 393, > 10 µM (inactive); with SF-295 it was > 100 µM (inactive); in the assay on SK-MEL-5 it was > 100 µM (inactive). For the same compound, the GI50 is > 100 µM (inactive) in the assay on SNB-75, 40.2 µM (inactive) in the assay with SR, > 100 µM (inactive) in the assay with UACC-257 and > 100 µM (inactive) in the assay with UACC-62.
